Experimental data published in patent publication US10076572B2, “Photodynamic therapy for treating Clostridium difficile infection using chitosan and tetracycline” (priority 2015, dated 2018).
Values joined by “and” are separate entries in the source; they are usually repeats but may differ in a detail not shown here. Identical values can stand only once.

Assays:
C. difficile [1] = assay: EMA-qPCR analysis of C. difficile DNA (16S rRNA gene) to evaluate cell death and DNA damage; assay type: cell-based, Clostridium difficile (KCTC 5009); conditions: UVA + TC (0.5 mg/mL), UVA irradiation 30 min
C. difficile [2] = assay: Synergistic photodynamic bactericidal activity (PDT with UVA), colony-forming units; assay type: cell-based, Clostridium difficile (KCTC 5009); conditions: for Log10 CFU/mL (mean ± SD, n = 3): UVA
Method: The standard strain of Clostridium difficile was provided by Korean Collection for Type Cultures (C. difficile, KCTC 5009). C. difficile was cultured at 37° C. in a standard anaerobic condition on Clostridia reinforced agar (Oxoid, Cambridge, CB5 8BZ, UK).
Tetracycline, chitosan (low molecular weight), and ethidium bromide monoazide (EMA) were purchased from Sigma (Sigma Chemical Co., St. Louis, Mo.). A stock solution of tetracycline was prepared in water at a concentration of 10 mg/mL and stored for a maximum of 2 weeks at 4° C. in the dark before use. A stock solution of chitosan (1% w/v) was prepared in 1% acetic acid and used within one month. The light source for UVA was lamp (315-400 nm) for treatment of psoriasis (UV801KL, Waldmann Medical division, Germany). The irradiation procedure was performed in a dark and closed box and C. difficile containing plates were placed at a distance of 10 cm from the light source.
Based on a modification of the method of Tegos (G. P. Tegos, M. R. Hamblin. Phenothiazinium bactericidal photosensitizers are substrates of bacterial multidrug resistance pumps. Antimicrob. Agents Chemother. 50 (2006)196-203.), C. difficile that had been stored at −70° C. was cultured in Clostridial agar medium for 3 days.
After successive subcultures for two days, the cells were collected and suspended in PBS at a concentration of 10^8 cells/mL. The cell suspension was exposed to tetracycline alone at concentrations of 0.05 mg/mL, 0.1 mg/mL, 0.5 mg/mL and 1 mg/mL, or to 0.0125% chitosan containing TC at a concentration of 0.05 mg/mL, 0.1 mg/mL, 0.5 mg/mL and 1 mg/mL for 30 min.
After samples were washed twice with PBS, the bacterial cell suspension was dispensed at a volume of 1000 μL in a plate for irradiation for 5, 10, 20 and 30 min. After irradiation, cells were serially diluted tenfold in PBS to give dilutions of 10^−1 to 10^−8 of the original concentrations, and a 10 μL aliquot of each dilution was spotted on a Clostridial agar plate. After 2 days incubation, the colonies were counted to obtain the number of colony-forming units. C. difficile without treatment with TC, chitosan and light served as the control.

[3] = TC 0.05 mg/mL+UVA, after 30 min irradiation
[4] = TC 0.1 mg/mL+UVA, after 30 min irradiation

SMILES: CN(C)[C@@H]1C(O)=C(C(N)=O)C(=O)[C@@]2(O)C(O)=C3C(=O)c4c(O)cccc4[C@@](C)(O)[C@H]3C[C@@H]12 [TC, tetracycline]
- Ct value (EMA-qPCR, 16S rRNA) (C. difficile [1]): 23.026±0.101 and 23.03 ± 0.101
- Log10 CFU/mL (mean ± SD, n = 3) (C. difficile [2]; 0.05 mg/mL TC, irradiation 0 min): 8.11 ± 0.48 Log10 CFU/mL
- Log10 CFU/mL (mean ± SD, n = 3) (C. difficile [2]; 0.05 mg/mL TC, irradiation 5 min): 8.11 ± 0.78 Log10 CFU/mL
- Log10 CFU/mL (mean ± SD, n = 3) (C. difficile [2]; 0.05 mg/mL TC, irradiation 10 min): 8.13 ± 0.40 Log10 CFU/mL
- Log10 CFU/mL (mean ± SD, n = 3) (C. difficile [2]; 0.05 mg/mL TC, irradiation 20 min): 8.11 ± 0.67 Log10 CFU/mL
- Log10 CFU/mL (mean ± SD, n = 3) (C. difficile [2]; 0.05 mg/mL TC, irradiation 30 min): 7.14 ± 0.33 Log10 CFU/mL
- Log10 CFU/mL (mean ± SD, n = 3) (C. difficile [2]; 0.1 mg/mL TC, irradiation 0 min): 8.03 ± 0.39 Log10 CFU/mL
- Log10 CFU/mL (mean ± SD, n = 3) (C. difficile [2]; 0.1 mg/mL TC, irradiation 5 min): 8.11 ± 0.11 Log10 CFU/mL
- Log10 CFU/mL (mean ± SD, n = 3) (C. difficile [2]; 0.1 mg/mL TC, irradiation 10 min): 8.13 ± 0.53 Log10 CFU/mL
- Log10 CFU/mL (mean ± SD, n = 3) (C. difficile [2]; 0.1 mg/mL TC, irradiation 20 min): 8.11 ± 0.21 Log10 CFU/mL
- Log10 CFU/mL (mean ± SD, n = 3) (C. difficile [2]; 0.1 mg/mL TC, irradiation 30 min): 7.12 ± 0.38 Log10 CFU/mL
- Log10 CFU/mL (mean ± SD, n = 3) (C. difficile [2]; 0.5 mg/mL TC, irradiation 0 min): 8.03 ± 0.48 Log10 CFU/mL
- Log10 CFU/mL (mean ± SD, n = 3) (C. difficile [2]; 0.5 mg/mL TC, irradiation 5 min): 6.02 ± 0.76 Log10 CFU/mL
- Log10 CFU/mL (mean ± SD, n = 3) (C. difficile [2]; 0.5 mg/mL TC, irradiation 10 min): 5.12 ± 0.10 Log10 CFU/mL
- Log10 CFU/mL (mean ± SD, n = 3) (C. difficile [2]; 0.5 mg/mL TC, irradiation 20 min): 5.11 ± 0.27 Log10 CFU/mL
- Log10 CFU/mL (mean ± SD, n = 3) (C. difficile [2]; 0.5 mg/mL TC, irradiation 30 min): 5.11 ± 0.23 Log10 CFU/mL
- Log10 CFU/mL (mean ± SD, n = 3) (C. difficile [2]; 1 mg/mL TC, irradiation 0 min): 8.03 ± 0.39 Log10 CFU/mL
- Log10 CFU/mL (mean ± SD, n = 3) (C. difficile [2]; 1 mg/mL TC, irradiation 5 min): 5.21 ± 0.11 Log10 CFU/mL
- Log10 CFU/mL (mean ± SD, n = 3) (C. difficile [2]; 1 mg/mL TC, irradiation 10 min): 4.11 ± 0.23 Log10 CFU/mL
- Log10 CFU/mL (mean ± SD, n = 3) (C. difficile [2]; 1 mg/mL TC, irradiation 20 min): 4.11 ± 0.21 Log10 CFU/mL
- Log10 CFU/mL (mean ± SD, n = 3) (C. difficile [2]; 1 mg/mL TC, irradiation 30 min): 0 Log10 CFU/mL
- decrease of viable cells (C. difficile [2]; [3]): 10 times
- viable cells (C. difficile [2]; [3]): 1.12×10^7
- decrease of viable cells (C. difficile [2]; [4]): 10 times
- viable cells (C. difficile [2]; [4]): 1.14×10^7
- viable cells (C. difficile [2]; TC 0.5 mg/mL+UVA, after 5 min irradiation): 1.10×10^6
- viable cells (C. difficile [2]; TC 0.5 mg/mL+UVA, after 10 min irradiation): 1.12×10^5
- viable cells (C. difficile [2]; TC 0.5 mg/mL+UVA, after 20 min irradiation): 1.11×10^5
- viable cells (C. difficile [2]; TC 0.5 mg/mL+UVA, after 30 min irradiation): 1.13×10^5
- viable cells (C. difficile [2]; TC 1.0 mg/mL+UVA, after 5 min irradiation): 1.21×10^5
- viable cells (C. difficile [2]; TC 1.0 mg/mL+UVA, after 10 min irradiation): 1.11×10^4
- viable cells (C. difficile [2]; TC 1.0 mg/mL+UVA, after 20 min irradiation): 1.13×10^4
- viable cells (C. difficile [2]; TC 1.0 mg/mL+UVA, after 30 min irradiation): 0
